The results in this text go back to EPA's aquatic toxicity sets.

In one data set the test system is Pimephales promelas. The experiment in a line: 96 h LC50 (-log10 mol/L); higher = more toxic.
With `Cc1cccc(C)c1`, the “96 h LC50 (-log10 mol/L)” value amounted to 3.82.
Turning to `CC(C)c1ccc2c(c1)CC[C@H]1[C@](C)(C(=O)O)CCC[C@]21C`, the “96 h LC50 (-log10 mol/L)” value is 4.97.
In the case of `CC1=CC(=O)CC(C)(C)C1`, the “96 h LC50 (-log10 mol/L)” value worked out at 2.74.

For the next data set, the system named is Tetrahymena pyriformis. As to the kind of experiment: 48 h IGC50 (-log10 mol/L); higher = more toxic.
In the case of `Cc1ccc(C)cc1`, the “48 h IGC50 (-log10 mol/L)” value is 3.25.
Consider `CN(C)c1ccccc1`, for which the “48 h IGC50 (-log10 mol/L)” value came to 3.28.
Turning to `CNC(N)=S`, the “48 h IGC50 (-log10 mol/L)” value worked out at 1.63.
In the case of `Oc1c(Cl)c(Cl)cc(Cl)c1Cl`, the “48 h IGC50 (-log10 mol/L)” value turned out to be 5.22.
With `NC(N)=S`, the “48 h IGC50 (-log10 mol/L)” value amounted to 1.68.
Same read-out and setting: the result for `Nc1cc(Cl)ccc1Cl` reads 3.58.
As to `Cc1ccc(O)c(C)c1`, the “48 h IGC50 (-log10 mol/L)” value was 3.14.
As to `CC(C)c1ccccc1`, the “48 h IGC50 (-log10 mol/L)” value turned out to be 3.69.
For the molecule `O=P(Oc1ccccc1)(Oc1ccccc1)Oc1ccccc1`, the “48 h IGC50 (-log10 mol/L)” value was determined as 4.81.
For `Cc1ccccc1N`, the “48 h IGC50 (-log10 mol/L)” value came to 2.84.
Consider `CCNC(N)=S`, for which the “48 h IGC50 (-log10 mol/L)” value came to 1.87.
Take `O=C(O)c1ccccc1O`: the “48 h IGC50 (-log10 mol/L)” value was found to be 2.49.
`OCCCl`: the “48 h IGC50 (-log10 mol/L)” value stood at 1.58.
Still for that read-out and setting: the result for `O=[N+]([O-])c1ccc(O)cc1` reads 4.42; that for `c1ccncc1`, 1.68.
For the molecule `CNC(=S)NC`, the “48 h IGC50 (-log10 mol/L)” value turned out to be 1.89.
`CC(=O)Nc1ccc(O)cc1`: the “48 h IGC50 (-log10 mol/L)” value was 2.18.
With `c1ccc2[nH]ccc2c1`, the “48 h IGC50 (-log10 mol/L)” value is 3.21.
Take `Clc1ccc(Cl)cc1`: the “48 h IGC50 (-log10 mol/L)” value is 3.53.
Still for that read-out and setting: the result for `O=[N+]([O-])c1cccc(Cl)c1Cl` reads 4.07; that for `Cc1ccc([N+](=O)[O-])cc1C`, 3.59; that for `CCC(=O)O`, 2.49.
Same read-out and setting: the same measure for `O=Cc1ccccc1`: 2.8.
With `CCCCc1ccccc1`, the “48 h IGC50 (-log10 mol/L)” value turned out to be 4.25.
In the case of `Cc1cc(Cl)ccc1O`, the “48 h IGC50 (-log10 mol/L)” value is 3.7.
`S=C=NCCc1ccccc1`: the “48 h IGC50 (-log10 mol/L)” value is 5.54.
As for `O=C(N=C=S)c1ccccc1`, the “48 h IGC50 (-log10 mol/L)” value came to 3.1.
Consider `CCOC(C)=O`, for which the “48 h IGC50 (-log10 mol/L)” value worked out at 1.7.
For the molecule `CCCCNC(N)=S`, the “48 h IGC50 (-log10 mol/L)” value came out at 2.81.
Consider `CCCCC(CC)C(=O)O` (stereo unspecified), for which the “48 h IGC50 (-log10 mol/L)” value was 3.08.
`Nc1ccc(Cl)cc1Cl`: the “48 h IGC50 (-log10 mol/L)” value was determined as 3.56.
Same read-out and setting: the same measure for `c1ccc2c(c1)oc1ccccc12`: 4.42; for `Cc1ccc2ccccc2c1`: 4.08; for `CCCCN=C=S`: 4.72.
`S=C=NCc1ccccc1`: the “48 h IGC50 (-log10 mol/L)” value turned out to be 5.74.
On the same count and under the same terms, the same measure for `O=[N+]([O-])c1cc(Cl)cc(Cl)c1`: 4.13; for `Cc1c(Cl)cccc1[N+](=O)[O-]`: 3.68; for `Oc1ccc(-c2ccccc2)cc1`: 4.39.
As for `S=C=Nc1ccc(N=C=S)cc1`, the “48 h IGC50 (-log10 mol/L)” value was 6.35.
On the same count and under the same terms, the result for `O=Cc1ccc(O)c(O)c1O` reads 3.
Consider `c1ccsc1`, for which the “48 h IGC50 (-log10 mol/L)” value was 1.56.
`CCOC(=O)CC`: the “48 h IGC50 (-log10 mol/L)” value turned out to be 2.06.

A further data set relates to Daphnia magna. The experiment in a line: 48 h LC50 (-log10 mol/L); higher = more toxic.
For the molecule `Cc1ccc(C)cc1`, the “48 h LC50 (-log10 mol/L)” value was 3.52.
Turning to `Cc1cccc(C)c1`, the “48 h LC50 (-log10 mol/L)” value is 3.65.
For `CC(C)c1ccc2c(c1)CC[C@H]1[C@](C)(C(=O)O)CCC[C@]21C`, the “48 h LC50 (-log10 mol/L)” value came out at 4.56.
Turning to `CN(C)c1ccccc1`, the “48 h LC50 (-log10 mol/L)” value worked out at 4.38.
Still for that read-out and setting: the same measure for `CC1=CC(=O)CC(C)(C)C1`: 3.06; for `CNC(N)=S`: 3.98; for `Oc1c(Cl)c(Cl)cc(Cl)c1Cl`: 5.61.
Regarding `NC(N)=S`, the “48 h LC50 (-log10 mol/L)” value came out at 3.88.
Consider `Nc1cc(Cl)ccc1Cl`, for which the “48 h LC50 (-log10 mol/L)” value amounted to 4.74.
Take `Cc1ccc(O)c(C)c1`: the “48 h LC50 (-log10 mol/L)” value came out at 4.76.
Still for that read-out and setting: the result for `CC(C)c1ccccc1` reads 3.77.
Turning to `O=P(Oc1ccccc1)(Oc1ccccc1)Oc1ccccc1`, the “48 h LC50 (-log10 mol/L)” value was determined as 5.51.
In the case of `Cc1ccccc1N`, the “48 h LC50 (-log10 mol/L)” value amounted to 5.31.
`CCNC(N)=S`: the “48 h LC50 (-log10 mol/L)” value was 3.94.
Take `O=C(O)c1ccccc1O`: the “48 h LC50 (-log10 mol/L)” value turned out to be 3.07.
Turning to `OCCCl`, the “48 h LC50 (-log10 mol/L)” value is 2.58.
With `O=[N+]([O-])c1ccc(O)cc1`, the “48 h LC50 (-log10 mol/L)” value was 4.02.
With `c1ccncc1`, the “48 h LC50 (-log10 mol/L)” value was found to be 1.81.
As for `CNC(=S)NC`, the “48 h LC50 (-log10 mol/L)” value turned out to be 3.83.
Regarding `CC(=O)Nc1ccc(O)cc1`, the “48 h LC50 (-log10 mol/L)” value amounted to 4.22.
On to `c1ccc2[nH]ccc2c1`, for which the “48 h LC50 (-log10 mol/L)” value amounted to 5.07.
Take `Clc1ccc(Cl)cc1`: the “48 h LC50 (-log10 mol/L)” value stood at 4.14.
Consider `O=[N+]([O-])c1cccc(Cl)c1Cl`, for which the “48 h LC50 (-log10 mol/L)” value was found to be 4.62.
The same measure, in the same setting: the same measure for `Cc1ccc([N+](=O)[O-])cc1C`: 3.98; for `CCC(=O)O`: 3.17; for `O=Cc1ccccc1`: 3.98.
As for `CCCCc1ccccc1`, the “48 h LC50 (-log10 mol/L)” value worked out at 5.55.
The same measure, in the same setting: the result for `Cc1cc(Cl)ccc1O` reads 5.69.
For the molecule `S=C=NCCc1ccccc1`, the “48 h LC50 (-log10 mol/L)” value was 6.1.
For the molecule `O=C(N=C=S)c1ccccc1`, the “48 h LC50 (-log10 mol/L)” value amounted to 4.93.
On the same count and under the same terms, the result for `CCOC(C)=O` reads 2.09; that for `CCCCNC(N)=S`, 3.85.
Regarding `CCCCC(CC)C(=O)O` (stereo unspecified), the “48 h LC50 (-log10 mol/L)” value was found to be 3.08.
Same read-out and setting: the result for `Nc1ccc(Cl)cc1Cl` reads 5.43; that for `c1ccc2c(c1)oc1ccccc12`, 5.
For `Cc1ccc2ccccc2c1`, the “48 h LC50 (-log10 mol/L)” value stood at 4.98.
Consider `CCCCN=C=S`, for which the “48 h LC50 (-log10 mol/L)” value was found to be 5.43.
With `S=C=NCc1ccccc1`, the “48 h LC50 (-log10 mol/L)” value came out at 6.54.
For the molecule `O=[N+]([O-])c1cc(Cl)cc(Cl)c1`, the “48 h LC50 (-log10 mol/L)” value came to 4.43.
`Cc1c(Cl)cccc1[N+](=O)[O-]`: the “48 h LC50 (-log10 mol/L)” value came out at 4.61.
Turning to `Oc1ccc(-c2ccccc2)cc1`, the “48 h LC50 (-log10 mol/L)” value came out at 4.67.
Consider `N#Cc1c(Cl)c(Cl)c(Cl)c(C#N)c1Cl`, for which the “48 h LC50 (-log10 mol/L)” value came out at 6.21.
Take `CCCSc1ccc2nc(NC(=O)OC)[nH]c2c1`: the “48 h LC50 (-log10 mol/L)” value worked out at 7.04.
The same measure, in the same setting: the result for `Clc1cc(Cl)c(-c2cc(Cl)c(Cl)cc2Cl)cc1Cl` reads 8.44; that for `CCOP(=O)(NC(C)C)Oc1ccc(SC)c(C)c1` (stereo unspecified), 8.11.
Turning to `CCC(CC)Nc1c([N+](=O)[O-])cc(C)c(C)c1[N+](=O)[O-]`, the “48 h LC50 (-log10 mol/L)” value was determined as 3.73.
For the molecule `S=C=Nc1ccc(N=C=S)cc1`, the “48 h LC50 (-log10 mol/L)” value amounted to 6.4.
On the same count and under the same terms, the same measure for `Clc1ccc(-c2ccccc2)cc1`: 5.63.
On the same count and under the same terms, the same measure for `c1ccc2c(c1)ccc1ccccc12`: 5.41.
As to `Oc1cc(Cl)c(Cl)c(Cl)c1`, the “48 h LC50 (-log10 mol/L)” value turned out to be 5.46.
In the case of `ClC=CCCl`, the “48 h LC50 (-log10 mol/L)” value turned out to be 4.32.
On to `O=Cc1ccc(O)c(O)c1O`, for which the “48 h LC50 (-log10 mol/L)” value worked out at 3.67.
As to `O=C1CNC(=S)N1`, the “48 h LC50 (-log10 mol/L)” value is 3.77.
`COc1ccc(NC(=O)N(C)C)cc1Cl`: the “48 h LC50 (-log10 mol/L)” value was 3.15.
For the molecule `O=C(NC(=O)c1c(F)cccc1F)Nc1ccc(Cl)cc1`, the “48 h LC50 (-log10 mol/L)” value amounted to 7.8.
As for `CCCCCOC(=O)Nc1nc(=O)n([C@@H]2O[C@H](C)[C@@H](O)[C@H]2O)cc1F`, the “48 h LC50 (-log10 mol/L)” value is 2.63.
Still for that read-out and setting: the result for `NC(=O)N1c2ccccc2C=Cc2ccccc21` reads 4.23.
`CCOc1ccc2c(c1)C(C)=CC(C)(C)N2`: the “48 h LC50 (-log10 mol/L)” value was 5.04.
For `CCCN(CCC)C(=S)SSC(=S)N(CCC)CCC`, the “48 h LC50 (-log10 mol/L)” value stood at 6.19.
For `c1ccsc1`, the “48 h LC50 (-log10 mol/L)” value stood at 2.42.
The same measure, in the same setting: the same measure for `CCc1ccccc1N`: 4.18; for `Cc1nc(N(C)C)nc(OC(=O)N(C)C)c1C`: 7.04; for `CC1CCCCC1`: 4.82.
For `CN(C)C(=O)Nc1ccc(Oc2ccc(Cl)cc2)cc1`, the “48 h LC50 (-log10 mol/L)” value was 4.99.
Still for that read-out and setting: the same measure for `CCOC(=O)CC`: 2.83; for `c1ccc2cnccc2c1`: 3.71.
